By IC50 is commonly meant the point on the concentration scale where inhibition reaches its midpoint. A low value points to greater potency in that assay.

Where only a bound is given, the exact number is not on record here.

This note sets out measurements from patent US7834023B2 (Portola Pharmaceuticals, Inc., priority 2006, dated 2010).

T1 sequence (Q9H244 whole entry): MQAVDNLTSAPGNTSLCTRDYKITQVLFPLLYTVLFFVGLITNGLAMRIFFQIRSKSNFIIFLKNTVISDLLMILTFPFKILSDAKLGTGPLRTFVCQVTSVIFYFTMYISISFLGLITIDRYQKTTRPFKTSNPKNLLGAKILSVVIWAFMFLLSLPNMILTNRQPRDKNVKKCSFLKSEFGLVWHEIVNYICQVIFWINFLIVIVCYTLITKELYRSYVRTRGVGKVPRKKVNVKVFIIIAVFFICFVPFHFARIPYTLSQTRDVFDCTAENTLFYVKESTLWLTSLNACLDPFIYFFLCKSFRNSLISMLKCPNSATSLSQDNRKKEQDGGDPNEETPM

This assay concerns the target T1, P2Y12 receptor (Homo sapiens, UniProt Q9H244).
T1 construct: endogenous in cells; host or cells: human platelets (outdated from blood banks or fresh), apyrase-washed, whole
Put plainly: platelet ADP receptor binding assay (ARB): inhibition of [3H]2-MeS-ADP binding to platelets. The settings on record: [3H]2-MeS-ADP binding to apyrase-washed human platelets. How it is done:
1. The Ability of Candidate Molecules to Inhibit the Binding of [^3H]2-MeS-ADP to the […] Receptor on Platelets was Determined Using a Radioligand Binding Assay.
Utilizing this assay the potency of inhibition of such compounds with respect to [^3H]2-MeS-ADP binding to whole platelets is determined. Under the conditions described in II (3) below, the binding of [^3H]2-MeS-ADP is solely due to the interaction of this ligand with the P2Y12 receptor, in that all the specific binding measured in this assay is competable with a P2Y12 antagonist (i.e., the specific binding is reduced to background levels by competition with an excess of P2Y12 antagonist, with no competition of binding when a P2Y1 antagonist is pre-incubated with the platelet preparation). [^3H]2-MeS-ADP binding experiments are routinely performed with outdated human platelets collected by standard procedures at hospital blood banks. Apyrase-washed outdated platelets are prepared as follows (all steps at room temperature, if not indicated otherwise):
Outdated platelet suspensions are diluted with 1 volume of CGS and platelets pelleted by centrifugation at 1900×g for 45 minutes. Platelet pellets are resuspended at 3-6×10^9 platelets/ml in CGS containing 1 U/ml apyrase (grade V, Sigma, St. Louis, Mo.) and incubated for 15 minutes at 37° C. After centrifugation at 730×g for 20 minutes, pellets are resuspended in Hepes-Tyrode's buffer containing 0.1% BSA (Sigma, St. Louis, Mo.) at a concentration of 6.66×10^8 platelets/ml. Binding experiments are performed after >45 minutes resting of the platelets.
Alternatively, binding experiments are performed with fresh human platelets prepared as described in section I (Inhibition of ADP-Mediated Platelet Aggregation in vitro), except that platelets are resuspended in Hepes-Tyrode's buffer containing 0.1% BSA (Sigma, St. Louis, Mo.) at a concentration of 6.66×10^8 platelets/mil. Very similar results are obtained with fresh and outdated platelets.
A platelet ADP receptor binding assay (ARB) using the tritiated potent agonist ligand [^3H]2-MeS-ADP (Jantzen, H. M. et al. (1999) Thromb. Hemost. 81:111-117) has been adapted to the 96-well microtiter format. In an assay volume of 0.2 ml Hepes-Tyrode's buffer with 0.1% BSA and 0.6% DMSO, 1×10^8 apyrase-washed platelets are preincubated in 96-well flat bottom microtiter plates for 5 minutes with serial dilutions of test compounds before addition of 1 nM [^3H]2-MeS-ADP ([^3H]2-methylthioadenosine-5′-diphosphate, ammonium salt; specific activity 20-50 Ci/mmole, obtained by custom synthesis from Amersham Life Science, Inc., Arlington Heights, Ill., or NEN Life Science Products, Boston, Mass.). Total binding is determined in the absence of test compounds. Samples for nonspecific binding may contain 10 μM unlabelled 2-MeS-ADP (RBI, Natick, Mass.). After incubation for 15 minutes at room temperature, unbound radioligand is separated by rapid filtration and two washes with cold (4-8° C.) Binding Wash Buffer (10 mM Hepes pH 7.4, 138 mM NaCl) using a 96-well cell harvester (Minidisc 96, Skatron Instruments, Sterling, Va.) and 8×12 GF/C glassfiber filtermats (Printed Filtermat A, for 1450 Microbeta, Wallac Inc., Gaithersburg, Md.). The platelet-bound radioactivity on the filtermats is determined in a scintillation counter (Microbeta 1450, Wallac Inc., Gaithersburg, Md.). Specific binding is determined by subtraction of non-specific binding from total binding, and specific binding in the presence of test compounds is expressed as % of specific binding in the absence of test compound dilutions. IC50s were derived by non-linear regression analysis.
In the case of `O=C(NC(Cc1cccs1)C(=O)O)c1ccc(-n2c(=O)[nH]c3cc(NCc4ccc(F)cc4)ccc3c2=O)cc1` (stereo not shown) [Compound 3, 2-(4-(7-(4-fluorobenzylamino)-2,4-dioxo-1,2-dihydroquinazolin-3(4H)-yl)benzamido)-3-(thiophen-2-yl)propanoic acid], the 50% inhibitory concentration (IC50) lay in the range of 50 to 500 nM.

Consider `CNc1cc2[nH]c(=O)n(-c3ccc(C(=O)NCc4ccc(Cl)s4)cc3)c(=O)c2cc1F` [Compound 4, N-((5-chlorothiophen-2-yl)methyl)-4-(6-fluoro-7-(methylamino)-2,4-dioxo-1,2-dihydroquinazolin-3(4H)-yl)benzamide], for which the IC50 was in the range of 50 to 500 nM.

Compound `CNc1cc2[nH]c(=O)n(-c3ccc(C(=O)NC(C(=O)O)c4cccs4)cc3)c(=O)c2cc1F` (stereo not shown) [Compound 8, 2-(4-(6-fluoro-7-(methylamino)-2,4-dioxo-1,2-dihydroquinazolin-3(4H)-yl)benzamido)-2-(thiophen-2-yl)acetic acid] registered a half-maximal inhibitory concentration (IC50) of more than 500 nM.

As to `CNc1cc2[nH]c(=O)n(-c3ccc(C(=O)NC(Cc4cccs4)C(=O)O)cc3)c(=O)c2cc1F` (stereo not shown) [Compound 9, 2-(4-(6-fluoro-7-(methylamino)-2,4-dioxo-1,2-dihydroquinazolin-3(4H)-yl)benzamido)-3-(thiophen-2-yl)propanoic acid], the half-inhibitory concentration (IC50) was more than 500 nM.

As for `O=C(NCc1nnn[nH]1)c1ccc(-n2c(=O)[nH]c3cc(NCc4ccc(F)cc4)ccc3c2=O)cc1` [Compound 10, N-((1H-tetrazol-5-yl)methyl)-4-(7-(4-fluorobenzylamino)-2,4-dioxo-1,2-dihydroquinazolin-3(4H)-yl)benzamide], the IC50 was more than 500 nM.

As for `CNc1cc2[nH]c(=O)n(-c3ccc(C(=O)NC(c4ccc(Cl)cc4)c4nnn[nH]4)cc3)c(=O)c2cc1F` (stereo not shown) [Compound 12, N-((4-chlorophenyl)(1H-tetrazol-5-yl)methyl)-4-(6-fluoro-7-(methylamino)-2,4-dioxo-1,2-dihydroquinazolin-3(4H)-yl)benzamide], the half-inhibitory concentration (IC50) is more than 500 nM.

`CNc1cc2[nH]c(=O)n(-c3ccc(C(=O)NC(C(=O)O)c4ccc(Cl)cc4)cc3)c(=O)c2cc1F` (stereo not shown) [Compound 14, 2-(4-chlorophenyl)-2-(4-(6-fluoro-7-(methylamino)-2,4-dioxo-1,2-dihydroquinazolin-3(4H)-yl)benzamido)acetic acid] yielded a 50% inhibitory concentration (IC50) of more than 500 nM.

For `CNc1cc2[nH]c(=O)n(-c3ccc(C(=O)NC(C(=O)O)c4cccc(Cl)c4)cc3)c(=O)c2cc1F` (stereo not shown) [Compound 15, 2-(3-chlorophenyl)-2-(4-(6-fluoro-7-(methylamino)-2,4-dioxo-1,2-dihydroquinazolin-3(4H)-yl)benzamido)acetic acid], the half-inhibitory concentration (IC50) was in the range of 50 to 500 nM.

As for `CNc1cc2[nH]c(=O)n(-c3ccc(C(=O)NC(C(=O)OC)c4ccc(Cl)s4)cc3)c(=O)c2cc1F` (stereo not shown) [Compound 18], the IC50 is more than 500 nM.

`CNc1ccc2c(=O)n(-c3ccc(C(=O)NC(C(=O)O)c4ccc(Cl)s4)cc3)c(=O)[nH]c2c1` (stereo not shown) [Compound 20, 2-(5-chlorothiophen-2-yl)-2-(4-(7-(methylamino)-2,4-dioxo-1,2-dihydroquinazolin-3(4H)-yl)benzamido)acetic acid] gave an IC50 of 50 to 500 nM.

As to `CNc1cc2[nH]c(=O)n(-c3ccc(C(=O)NC(c4cccc(C)c4)c4nnn[nH]4)cc3)c(=O)c2cc1F` (stereo not shown) [Compound 22], the concentration for half-maximal inhibition (IC50) is more than 500 nM.

The compound `CNc1cc2[nH]c(=O)n(-c3ccc(C(=O)NC(c4cccc(OC)c4)c4nnn[nH]4)cc3)c(=O)c2cc1F` (stereo not shown) [Compound 23, 4-(6-fluoro-7-(methylamino)-2,4-dioxo-1,2-dihydroquinazolin-3(4H)-yl)-N-((3-methoxyphenyl)(1H-tetrazol-5-yl)methyl)benzamide] had an IC50 of more than 500 nM.

`CNc1cc2[nH]c(=O)n(-c3ccc(C(=O)NC(c4cccc(F)c4)c4nnn[nH]4)cc3)c(=O)c2cc1F` (stereo not shown) [Compound 24, 4-(6-fluoro-7-(methylamino)-2,4-dioxo-1,2-dihydroquinazolin-3(4H)-yl)-N-((3-fluorophenyl)(1H-tetrazol-5-yl)methyl)benzamide]: the IC50 was more than 500 nM.

In turn, `CNc1cc2[nH]c(=O)n(-c3ccc(C(=O)NC(c4nsc(=O)[nH]4)c4ccc(Cl)s4)cc3)c(=O)c2cc1F` (stereo not shown) [Compound 25, N-((5-chlorothiophen-2-yl)(5-oxo-4,5-dihydro-1,2,4-thiadiazol-3-yl)methyl)-4-(6-fluoro-7-(methylamino)-2,4-dioxo-1,2-dihydroquinazolin-3(4H)-yl)benzamide] yielded an IC50 of 50 to 500 nM.

In turn, `CCOC(=O)C(NC(=O)c1ccc(-n2c(=O)[nH]c3cc(NC)c(F)cc3c2=O)cc1)c1ccc(Cl)s1` (stereo not shown) [Compound 26, ethyl 2-(5-chlorothiophen-2-yl)-2-(4-(6-fluoro-7-(methylamino)-2,4-dioxo-1,2-dihydroquinazolin-3(4H)-yl)benzamido)acetate] returned an IC50 of more than 500 nM.

`CNc1cc2[nH]c(=O)n(-c3ccc(C(=O)NC(c4nnn[nH]4)c4ccccc4Cl)cc3)c(=O)c2cc1F` (stereo not shown) [Compound 28, N-((2-chlorophenyl)(1H-tetrazol-5-yl)methyl)-4-(6-fluoro-7-(methylamino)-2,4-dioxo-1,2-dihydroquinazolin-3(4H)-yl)benzamide] came in with an IC50 of more than 500 nM.

`CNc1cc2[nH]c(=O)n(-c3ccc(C(=O)NC(c4ccc(Cl)c(Cl)c4)c4nnn[nH]4)cc3)c(=O)c2cc1F` (stereo not shown) [Compound 29, N-((3,4-dichlorophenyl)(1H-tetrazol-5-yl)methyl)-4-(6-fluoro-7-(methylamino)-2,4-dioxo-1,2-dihydroquinazolin-3(4H)-yl)benzamide]: the half-maximal inhibitory concentration (IC50) was more than 500 nM.

As to `CNc1cc2[nH]c(=O)n(-c3ccc(C(=O)NC(c4cc(Cl)cc(Cl)c4)c4nnn[nH]4)cc3)c(=O)c2cc1F` (stereo not shown) [Compound 30, N-((3,5-dichlorophenyl)(1H-tetrazol-5-yl)methyl)-4-(6-fluoro-7-(methylamino)-2,4-dioxo-1,2-dihydroquinazolin-3(4H)-yl)benzamide], the half-inhibitory concentration (IC50) is more than 500 nM.

`CNc1cc2[nH]c(=O)n(-c3ccc(C(=O)NC(c4cccc(OC(F)(F)F)c4)c4nnn[nH]4)cc3)c(=O)c2cc1F` (stereo not shown) [Compound 31] came in with a half-inhibitory concentration (IC50) of more than 500 nM.

For `O=C(NC(C(=O)O)c1ccc(Cl)s1)c1ccc(-n2c(=O)[nH]c3ccccc3c2=O)cc1` (stereo not shown) [Compound 33, 2-(5-chlorothiophen-2-yl)-2-(4-(2,4-dioxo-1,2-dihydroquinazolin-3(4H)-yl)benzamido)acetic acid], the concentration for half-maximal inhibition (IC50) was more than 500 nM.

On to `CNc1cc2[nH]c(=O)n(-c3ccc(C(=O)NC(c4cccc(C(F)(F)F)c4)c4nnn[nH]4)cc3)c(=O)c2cc1F` (stereo not shown) [Compound 34], for which the IC50 was more than 500 nM.

Take `CNc1cc2[nH]c(=O)n(-c3ccc(C(=O)NC(CO)c4ccc(Cl)s4)cc3)c(=O)c2cc1F` (stereo not shown) [Compound 36]: the IC50 was in the range of 50 to 500 nM.

`O=C(NC(C(=O)O)c1ccc(Cl)s1)c1ccc(-n2c(=O)[nH]c3ccc(I)cc3c2=O)cc1` (stereo not shown) [Compound 37, 2-(5-chlorothiophen-2-yl)-2-(4-(6-iodo-2,4-dioxo-1,2-dihydroquinazolin-3(4H)-yl)benzamido)acetic acid] had a half-inhibitory concentration (IC50) of 50 to 500 nM.

In turn, `CC(C)Oc1ccc2[nH]c(=O)n(-c3ccc(C(=O)NC(C(=O)O)c4ccc(Cl)s4)cc3)c(=O)c2c1` (stereo not shown) [Compound 38, 2-(5-chlorothiophen-2-yl)-2-(4-(6-isopropoxy-2,4-dioxo-1,2-dihydroquinazolin-3(4H)-yl)benzamido)acetic acid] registered an IC50 of more than 500 nM.

Compound `O=C(NC(C(=O)O)c1cccs1)c1ccc(-n2c(=O)[nH]c3ccccc3c2=O)cc1` (stereo not shown) [Compound 39] registered an IC50 of more than 500 nM.
